PMC11607671, “Antiviral activity of cathelicidins against porcine epidemic diarrhea virus (PEDV): Mechanisms, and efficacy” (Virus Research, 2024)

What was measured:
[1] = test system: PEDV; assay: Transmission electron microscopy of peptide-treated virus; parameters: species or system Porcine epidemic diarrhea virus; settings: PEDV treated with 10 µM peptide, negative stain, Fig. 9; for effect on virus morphology / membrane (TEM): one minute at 37 °C
Method: PEDV was treated with CATH-B1, LL-37, PMAP-23, and PMAP-36 for one minute at 37 °C. Subsequently, 10 µL of the sample was placed onto a freshly carbon-coated copper grid. The grids were washed 3 times with PBS and then fixed with 1% glutaraldehyde (Sigma-Aldrich, St. Louis, MO, USA) in PBS for 10 min. Following this fixation, the grids were rinsed 2 times with PBS and 4 times with MilliQ water. They were stained for 5 min in Uranyl Acetate (pH 7) then briefly washed with methylcellulose/uranyl acetate (pH 4) and incubated for 5 min on ice. Finally, the grids were looped out of the solution and air-dried. The samples were subsequently examined in a JEM1010 (JEOL) equipped with a Veleta 2k × 2k CCD camera (EMSIS, Munster, Germany).
Fig. 9 The effect of AMPs on the morphology of the virus. PEDV (MOI=0.3), which was pre-incubated with peptides. TEM images were taken of PEDV alone (A–D), PEDV treated with 10 µM LL-37 (E-H), PEDV treated with 10 µM CATH-B1 (I-L), PEDV treated with 10 µM PMAP-23 (M, N), and PEDV treated with 10 µM PMAP-36 (O, P). […] Micrographs were captured with a pixel size of 0,5 nm and analyzed visually using ImageJ. The micrographs are representative of observations from three independent experiments. Scale bars represent 100 nm.

[2] = test system: PEDV-GFP; assay: Co-incubation antiviral assay of the extended AMP panel and of FL LL-37; assay type: cell-based, Porcine epidemic diarrhea virus; settings: FC; for prevention of PEDV-GFP entry into Vero cells, extended AMP panel, in words: co-incubation with PEDV-GFP, 1 and 5 µM, 3 h, two independent experiments in duplicate, Fig. 5
Method: (§1) In order to determine the effect of AMPs on the infectivity of PEDV, Vero cells (5 × 10^5 per well) were seeded in 12-well plates and cultured overnight at 37 °C, 5% CO2. In a co-incubation of virus and AMPs experiments (Fig. 2A), the mixture of AMPs (0–10 µM) and PEDV-GFP (MOI= 0.3) in a 1 mL volume of DMEM (P/S + 10% FCS) was added to the cells and incubated at 37 °C. After 2 h, the supernatant was replaced with fresh DMEM (P/S + 10% FCS) and incubated for 24 h. Subsequently, the cells were washed 2 times with flow cytometry buffer (500 mL PBS+ 10 mL FCS+ 250 µL of 10% NaN3) and were imaged with an EVOS M5000 Imaging System for semi-quantitative determination of infectivity. Eventually, cells were carefully detached by 2.5% trypsin, stained with ViaKrome 808 fixable viability dye (1:1000), and incubated for 30 min at 4 °C. Following washing, the cells were fixed using 50 µL of 4% PFA for 10 min, and a minimum of 1 × 10^5 cells were acquired using the CytoFLEX LX Flow Cytometer (FC)(Beckman Coulter, USA). Data was analyzed using FlowJo software v.10.6 (Flowjo LCC, Ashland, OR, USA).
This extended panel of AMPs encompassed chicken-derived peptides (D-CATH-2, l-CATH-2), mouse-derived peptide (CRAMP), horse-derived peptides (eCATH-1, eCATH-3), parrot-derived peptides (ER2, ER3, AG3), and synthetic peptides (CR165, CR174), all of which were readily accessible within our laboratory. As previously described, these AMPs were co-incubated with PEDV.
Fig. 5 Antiviral effects of a diverse group of AMPs on PEDV infection. Vero cells were incubated for 3 h with a combination of PEDV-GFP and AMPs, as described previously. FC was utilized to assess the inhibitory impact of AMPs.
Figure S4. The antiviral activity of FL LL-37 (fluorogenic LL-37 ) and unlabeled LL-37. Peptides were co-incubated at 1 and 5 µM with PEDV and added to Vero cells for 3 h, followed by FC analysis to examine the infectivity.

[3] = test system: PEDV-GFP; assay: Co-incubation antiviral assay, PEDV-GFP MOI=0.3, Vero cells (fluorescence microscopy and flow cytometry); assay type: cell-based, Porcine epidemic diarrhea virus
Method: as §1
Fig. 2 Effect of AMPs on the infectivity of PEDV (MOI=0.3). A) Experimental set-up of the ‘co-incubation assay’; Vero cells were subjected to 2 h exposure to a combination of AMPs and PEDV-GFP. Afterward, the supernatant was replaced, and the cells were incubated for an additional 24 h B) Fluorescent microscopy (20 × magnification) was performed to visualize the fluorescence signal of GFP in the presence of 1, 5, and 10 µM AMPs. The cell-only sample consists exclusively of cells while the no-peptide sample contains only PEDV-GFP, with no peptides present.
Fig. 3 Antiviral activity of AMPs as determined by flow cytometry (FC). A) The percentage of GFP-positive cells following a 2 h incubation with a combination of PEDV and AMPs. […] The values reported here depict the average ± SD derived from three independent experiments performed in duplicate. * p < 0.05; ** p < 0.01.

[4] = test system: PEDV; assay: Co-incubation antiviral assay, PEDV MOI=1, Vero cells; assay type: cell-based, Porcine epidemic diarrhea virus; settings: PEDV MOI=1, co-incubation, Vero cells, FC; Fig. 4B
Method: as §1
Fig. 4 The inhibitory effect of AMPs on PEDV at MOI=1. A) Fluorescence microscopy image was captured at 20 × magnification to visualize the GFP fluorescence signal in Vero cells following co-incubation of AMPs and PEDV at MOI=1. B) The percentage of GFP-positive cells was determined by FC after 3 h co-incubation of PEDV and AMPs. C) The fluorescence intensity of GFP across three different concentrations of LL-37 was illustrated through the FC histogram. […] The reported values in 4A represent the mean ± SD of three independent experiments performed in duplicate **** p < 0.0001.

[5] = test system: PEDV-GFP; assay: Pre-incubation (pre-treatment) antiviral assay; assay type: cell-based, Porcine epidemic diarrhea virus; settings: Vero cells treated 3 h with AMPs (0-10 µM), washed, then infected with PEDV-GFP MOI 0.3 for 2 h; FC; Fig. 6B, C
Method: The effect of AMPs on viral infectivity was also determined when they were added to Vero-cells before (pre-treatment) or after (post-treatment) infection. In the pre-treatment assay (Fig. 6A), Vero cells were treated with different concentrations of CATH-B1 and LL-37 peptides (ranging from 0 to 10 µM) for various durations (1, 2, 3, 4, and 24 h) at 37 °C. Subsequently, the cells were washed 2 times with PBS and infected with PEDV-GFP at an MOI of 0.3 for 2 h
In post-incubation assays (Fig. 7A), cells were initially exposed to the virus for 2 h, washed 2times with PBS and subsequently treated with AMPs for 3 h Both for pre- and post-infection assays, after the respective incubation periods, the cells were assessed using fluorescence microscopy and quantified using FC as described above.
Fig. 6 Effects of AMPs in pre-incubation assay. A) Experimental set-up of pre-incubation experiment. B) FC was employed to quantify the percentage of GFP-positive cells during pre-incubation. […] The reported values represent the mean ± SD derived from three independent experiments performed in triplicate. * p < 0.05; ** p < 0.01.

[6] = test system: PEDV; assay: Peptide-virus interaction assay with Capto Core 700 beads; assay type: cell-based, Porcine epidemic diarrhea virus; settings: Fig. 8
Method: In order to determine if CATH-B1 and LL-37 physically interact with PEDV, Capto Core 700 beads (GE Healthcare Life Sciences, Chicago, IL, USA) were used to selectively eliminate unbound AMPs. PEDV were pre-incubated with or without CATH-B1/LL-37 in Opti-MEM medium, and Capto Core 700 beads were added, followed by a 1 h incubation at 4 °C while slowly rotating. After centrifugation, supernatants were collected and applied to the cells. To make sure the AMP was removed effectively, we tested samples with peptides but no virus using the same process. The collected supernatants were used to inoculate cells, and the number of infected cells was determined using the described method.
Fig. 8 Interactions between CATH-B1 and LL-37 with PEDV. CATH-B1/LL-37 were pre-incubated with the virus, and subsequently, the peptide and virus were separated using Capto Core beads. The supernatant containing the separated virus was then employed to infect Vero cells. […] The data is presented as the mean ± SEM of three independent experiments in duplicate, each with triplicate samples. **** p < 0.0001.

[7] = test system: Vero cells
Method: To investigate the cellular localization of LL-37, Fluorogenic (FL) LL-37 was incubated with Vero cells for 3 h The cells were then washed with PBS and further incubated for 24 h at 37 °C. FC analysis was conducted to evaluate the amount of labeled LL-37 adhered or internalized within the cell, as described earlier (using unlabeled LL-37 as control). Additionally, to assess LL-37 uptake in Vero cells, the cells were incubated with FL LL-37 at concentrations of 1 and 5 µM for 30 min, 60 min, and 180 min, followed by PBS washes. After incubation, the cells were fixed with 4% PFA for 30 min at RT. After two PBS washes, DAPI (Thermo Fisher Scientific, Waltham, MA, USA) diluted in PBS (1:1000) was added for 5 min to stain the nuclei. The live cells were then imaged using a Leica TCS SP2 confocal microscope with a 63 × objective. To examine the uptake mechanism, Vero cells were first incubated at 4 °C for 30 min to inhibit energy-dependent pathways before adding FL LL-37. Subsequently, the cells were incubated with the peptide at 4 °C for 30, 60, and 180 min. FC analysis was performed to quantify the amount of FL LL-37 adhered to or internalized by the cells.
A) Following a 3 h incubation with Vero cells and subsequent washing, the cellular entry of FL LL-37 and unlabeled LL-37 was examined using FC. Two concentrations of LL-37 were employed for this investigation. B) After treating the cells with 1 and 5 µM FL LL-37 for 30 min, 1 h, and 3 h, the cells were washed, and DAPI staining was applied before imaging using confocal microscopy. […] The image was acquired at a magnification of 63x. The sample designated as 'cells only' comprises only cells, with an absence of peptides and viruses. In contrast, the 'no peptide' sample is characterized by the presence of only the virus.
Cellular uptake of fluorescein-labeled LL-37 (1 μM and 5 μM) in Vero cells was assessed after incubation for A) 30 min, B) 60 min, and C) 180 min, using a temperature-controlled assay at both 37 °C and 4 °C. Untreated cells (cells only) were used as the control.

GRFRRLRKKTRKRLKKIGKVLKWIPPIVGSIPLGCG [PMAP-36, porcine cathelicidin, 36 residues]
effect on virus morphology / membrane (TEM) [1]: structure remained unchanged

ISRLAGLLRKGGEKIGEKLKKIGQKIKNFFQKLVPQPE [CRAMP, mouse-derived peptide, 38 residues]
prevention of PEDV-GFP entry into Vero cells, extended AMP panel, in words [2]: failed to neutralize PEDV

PIRNWWIRIWEWLNGIRKRLRQRSPFYVRG HLNVTSTPQP (PIRNWWIRIWEWLNGIRKRLRQRSPFYVRGHLNVTSTPQP) [CATH-B1, chicken cathelicidin, 40 residues]
percentage of GFP-positive cells (FC), co-incubation ([3]; 10 µM peptide, PEDV-GFP MOI=0.3, 2 h co-incubation then 24 h, no-peptide control approximately 35%, three independent experiments in duplicate, Fig. 3A): 1–2% | infected cells by fluorescent microscopy, co-incubation ([3]; PEDV-GFP MOI=0.3, 5 and 10 µM peptide, 2 h co-incubation then 24 h, compared to control without peptide, Fig. 2B): reduced numbers of infected cells | antiviral effect at MOI=1, in words [4]: diminished as the MOI increased | antiviral activity in pre-incubation assay, in words [5]: strong activity only at 10 μM | virus infectivity, peptide pre-incubated with beads before PEDV introduction ([6]; Capto Core 700 beads, Vero cells): minimal effects on virus infectivity | virus infectivity, peptide incubated with PEDV without beads ([6]; no Capto Core 700 beads, Vero cells): a decrease in virus infectivity | antiviral activity when peptide is combined with virus and beads ([6]; peptide + PEDV, then Capto Core 700 beads 1 h at 4 °C, supernatant applied to Vero cells): remained unchanged | virus aggregation (TEM) [1]: extensive virus aggregation | effect on virus morphology / membrane (TEM) [1]: significant membrane damage

RIIDLLWRVRRPQKPKFVTVWVR [PMAP-23, porcine cathelicidin, 23 residues]
effect on virus morphology / membrane (TEM) [1]: structure remained unchanged

RRWVQRWIRRWRKVAAARRWVQRWIRRWRPKV [CR-174, non-naturally occurring synthetic (designed) AMP]
prevention of PEDV-GFP entry into Vero cells, extended AMP panel, in words [2]: unsuccessful in significantly preventing PEDV-GFP entry

RRWVQRWIRWVQRWVR [CR-165, non-naturally occurring synthetic (designed) AMP]
prevention of PEDV-GFP entry into Vero cells, extended AMP panel, in words [2]: unsuccessful in significantly preventing PEDV-GFP entry

Tamra-(ahx)-LLGDFFRKSKEKIGKEFKRIVQRIKDFLRNLVPRTES [FL LL-37]
effect of fluorogenic labelling on antiviral activity ([2]; 1 and 5 µM co-incubated with PEDV, Vero cells 3 h, compared with unlabeled LL-37, Fig. S4): no effect on the antiviral activity | cellular localization (confocal microscopy) ([7]; 1 and 5 µM, 1 and 3 h incubation, Vero cells, fixed, DAPI, Fig. 10B): predominant intracellular localization | uptake or attachment to Vero cells (FC) ([7]; 3 h incubation with Vero cells, washing, FC fluorescence, two concentrations, unlabeled LL-37 as negative control, Fig. 10A): substantial concentration-dependent uptake or attachment | uptake at 4 °C (FC) ([7]; Vero cells at 4 °C versus 37 °C, 1 and 5 µM, 30, 60, 180 min, Fig. S5): significant reduction in the uptake
